Like-named read-outs stand apart in the source and are kept apart here.
What was measured:
[1] = tested on: Botryotinia fuckeliana (Botrytis cinerea); assay: Botryotinia fuckeliana (Botrytis cinerea) / liquid culture (gray mould); format: cell-based; details: 72 h, read-out: control of Botryotinia fuckeliana
[2] = tested on: Monographella nivalis (Microdochium nivale); assay: Monographella nivalis (Microdochium nivale) / liquid culture (foot rot cereals); format: cell-based; details: 96 h, inhibition of growth photometrically 4-5 days after application, compared to untreated control
[3] = tested on: Glomerella lagenarium (Colletotrichum lagenarium); assay: Glomerella lagenarium (Colletotrichum lagenarium) / liquid culture (anthracnose); format: cell-based; details: Colletotrichum orbiculare, read-out: control of Glomerella lagenarium
Fusarium culmorum [4] = assay: microbe, parasite or virus in culture; format: cell-based; details: read-out: control of Fusarium culmorum
[5] = tested on: Magnaporthe grisea (Pyricularia oryzae); assay: microbe, parasite or virus in culture; format: cell-based; details: 72 h, read-out: control of Magnaporthe grisea
Fusarium culmorum [6] = assay: whole plant or invertebrate; format: in vivo, Fusarium culmorum on wheat spikelets cv. Monsun; details: in Triticum aestivum, read-out: control of Fusarium culmorum
[7] = 20 ppm, liquid culture, inhibition of growth photometrically 3-4 days after application, compared to untreated control

Compound | inhibition of growth at 20 ppm [1, 7] [%] | inhibition of growth at 20 ppm [2] [%] | melting point [°C] | inhibition of growth at 20 ppm [3, 7] [%] | inhibition of growth at 20 ppm (Fusarium culmorum [4]) [%] | inhibition of growth at 20 ppm [5] [%] | pest or weed control at 200 ppm (Fusarium culmorum [6]) [%] | inhibition of growth at 20 ppm [1] [%] | inhibition of growth at 20 ppm [3] [%]
C/C(=C/c1ccccc1)CC(C)(C)NC(=O)c1cnc2c(F)cccc2c1 [E-31] | ≥ 80 | ≥ 80 | 127 to 129 | – | – | – | – | – | –
CCCC(C)CC(C)NC(=O)c1cnc2c(F)cccc2c1 (stereo not shown) [E-51] | ≥ 80 | ≥ 80 | – | ≥ 80 | ≥ 80 | – | – | – | –
CC(C)=C(C)CC(C)(CC(C)C)NC(=O)c1cnc2c(F)cccc2c1 (stereo not shown) [E-15] | ≥ 80 | ≥ 80 | – | ≥ 80 | ≥ 80 | ≥ 80 | – | – | –
CC(C)CC(C)CC(C)(C)NC(=O)c1cnc2c(F)cccc2c1 (stereo not shown) [E-22] | ≥ 80 | ≥ 80 | – | ≥ 80 | ≥ 80 | ≥ 80 | – | – | –
CCCC(C)CC(C)(CC(F)(F)F)NC(=O)c1cnc2c(F)cccc2c1 (stereo not shown) [E-52] | ≥ 80 | ≥ 80 | – | ≥ 80 | ≥ 80 | ≥ 80 | ≥ 80 | – | –
COc1ccc(CCC(C)(C#N)NC(=O)c2cnc3c(F)cccc3c2)cc1 (stereo not shown) [E-30] | – | – | 175 to 176 | ≥ 80 | ≥ 80 | – | – | – | –
CC(C)CC=CCC(C)(C)NC(=O)c1cnc2c(F)c(F)ccc2c1 [E-33] | ≥ 80 | ≥ 80 | – | ≥ 80 | ≥ 80 | – | – | – | –
C/C(=C\c1ccccc1)CC(C)(C)NC(=O)c1cc2cccc(F)c2nc1C | – | – | 108 to 110 | – | – | – | – | – | –
CC(C)=CCC(C)(CC(C)C)NC(=O)c1cnc2c(F)cccc2c1 (stereo not shown) [E-11] | ≥ 80 | ≥ 80 | 94 to 96 | ≥ 80 | ≥ 80 | ≥ 80 | – | – | –
C/C(=C/c1ccccc1)CC(C)(C)NC(=O)c1cnc2c(F)cccc2c1C [E-28] | ≥ 80 | – | 96 to 98 | – | ≥ 80 | – | – | – | –
CC1(CC(C)(CC(F)(F)F)NC(=O)c2cnc3c(F)cccc3c2)CC1 (stereo not shown) [E-10, 8-fluoro-N-[3,3,3-trifluoro-1-methyl-1-[(1-methylcyclopropyl)methyl]propyl]quinoline-3-carboxamide] | ≥ 80 | ≥ 80 | 126 to 128 | ≥ 80 | ≥ 80 | ≥ 80 | – | – | –
CC(CC1CC1)(CC1CC1)NC(=O)c1cnc2c(F)cccc2c1 [E-17] | ≥ 80 | ≥ 80 | 96 to 98 | ≥ 80 | ≥ 80 | ≥ 80 | ≥ 80 | – | –
O=C(NC(CC1CC1)CC1CC1)c1cnc2c(F)cccc2c1 [E-24] | ≥ 80 | – | 141 to 143 | ≥ 80 | ≥ 80 | ≥ 80 | – | – | –
CCC(CC)CC(C)NC(=O)c1cnc2ccccc2c1 (stereo not shown) [E-38] | ≥ 80 | ≥ 80 | – | ≥ 80 | ≥ 80 | – | – | – | –
CC(CC1CC1)(CC1CC1)NC(=O)c1cnc2ccccc2c1 [E-26] | ≥ 80 | ≥ 80 | 92 to 94 | ≥ 80 | ≥ 80 | – | ≥ 80 | – | –
CC(Cc1ccccc1)C(C)(C)NC(=O)c1cnc2c(F)cccc2c1 (stereo not shown) [E-16] | ≥ 80 | ≥ 80 | – | ≥ 80 | ≥ 80 | – | ≥ 80 | – | –

Compound | inhibition of growth at 20 ppm [1, 7] [%] | inhibition of growth at 20 ppm [2] [%] | melting point [°C] | inhibition of growth at 20 ppm [3, 7] [%] | inhibition of growth at 20 ppm (Fusarium culmorum [4]) [%] | inhibition of growth at 20 ppm [5] [%] | pest or weed control at 200 ppm (Fusarium culmorum [6]) [%] | inhibition of growth at 20 ppm [1] [%] | inhibition of growth at 20 ppm [3] [%]
CC(CC1CC=CCC1)NC(=O)c1cnc2ccccc2c1 (stereo not shown) [E-49] | ≥ 80 | – | – | ≥ 80 | ≥ 80 | – | – | – | –
O=C(NC(CC1CC1)CC1CC1)c1cnc2ccccc2c1 [E-29] | ≥ 80 | – | 123 to 125 | ≥ 80 | ≥ 80 | – | – | – | –
CCCC(C)CC(C)NC(=O)c1cnc2ccccc2c1 (stereo not shown) [E-41] | ≥ 80 | – | – | ≥ 80 | ≥ 80 | – | – | – | –
CC(C)CC(C)(C#N)NC(=O)c1cnc2c(F)cccc2c1 (stereo not shown) [E-35] | – | – | 167 to 171 | – | ≥ 80 | – | – | – | –
CC(C)(NC(=O)c1cnc2c(F)cccc2c1)C1CCCCC1 [E-7] | ≥ 80 | ≥ 80 | – | ≥ 80 | ≥ 80 | – | – | – | –
Cc1cccc2cc(C(=O)NC(C)CC3CC=CCC3)cnc12 (stereo not shown) [E-50] | ≥ 80 | ≥ 80 | – | ≥ 80 | ≥ 80 | – | ≥ 80 | – | –
CC(C)(C/C=C/c1ccccc1)NC(=O)c1cnc2c(F)c(F)ccc2c1 [E-34] | ≥ 80 | ≥ 80 | – | – | ≥ 80 | – | – | – | –
C=CCC(C)(C)NC(=O)c1cnc2c(F)c(F)ccc2c1 [E-36] | ≥ 80 | – | 116 to 119 | ≥ 80 | ≥ 80 | – | – | – | –
CCCCCC(C)(C)NC(=O)c1cnc2c(F)cccc2c1 [E-1] | – | – | – | – | ≥ 80 | – | – | ≥ 80 | ≥ 80
CCC(CC)CC(C)NC(=O)c1cnc2c(F)cccc2c1 (stereo not shown) [E-40] | ≥ 80 | ≥ 80 | – | ≥ 80 | ≥ 80 | – | – | – | –
CCC(CC)CC(C)NC(=O)c1cnc2c(C)cccc2c1 (stereo not shown) [E-39] | ≥ 80 | – | – | ≥ 80 | ≥ 80 | – | – | – | –
CCC(CC)CC(C)(CC(F)(F)F)NC(=O)c1cnc2ccccc2c1 (stereo not shown) [E-43] | ≥ 80 | – | 93 to 95 | ≥ 80 | ≥ 80 | ≥ 80 | ≥ 80 | – | –
CC(C)=C(F)CC(C)(CC(C)C)NC(=O)c1cnc2ccccc2c1 (stereo not shown) [E-19] | ≥ 80 | – | 95 to 97 | ≥ 80 | ≥ 80 | ≥ 80 | ≥ 80 | – | –
CC(C)=CCC(C)(CC(C)C)NC(=O)c1cnc2ccccc2c1 (stereo not shown) [E-13] | ≥ 80 | ≥ 80 | – | ≥ 80 | ≥ 80 | ≥ 80 | – | – | –
CCC(CC)CC(C)(CC(F)(F)F)NC(=O)c1cnc2c(C)cccc2c1 (stereo not shown) [E-44] | ≥ 80 | ≥ 80 | – | ≥ 80 | ≥ 80 | ≥ 80 | – | – | –

Reference: patent publication US11185074B2, “Microbiocidal quinoline (thio)carboxamide derivatives” (SYNGENTA PARTICIPATIONS AG, priority 2017, dated 2021)
